Data on one compound can be found in patent US11701377B2, “Methods for treating cancers by prodrugs of clofarabine” (priority 2016, dated 2023).

For data set [1], the system named is human K562 chronic myelogenous leukemia cell line. Description: In Vitro Anti-proliferative Assay Using Human K562 Leukemia Cell Line. In kind it is cell-based. Conditions: K562 cells, 72 hours, 37° C., 5% CO2, triplicates, cell viability. As for the experimental part: Method H: In Vitro Anti-proliferative Assay Using Human K562 Leukemia Cell Line. A representative compound (Example 1, Compound 3) was assessed for its anti-proliferative activity against human K562 chronic myelogenous leukemia cell line at various concentrations ranging from 10 μM to 0.005 μM in triplicates. Incubations were carried out at 37° C., 5% CO2, under humidified atmosphere for 72 hours. After incubation, cell viability was examined.

The nature of data set [2]: In Vitro Metabolic Conversion Assay Using Human Plasma. The data set is classed as in vitro ADME. The following applies: incubation with human plasma at 15 µg/mL, 37° C., 60 minutes, HPLC. The protocol:
Method F: In Vitro Metabolic Conversion Assay Using Human Plasma. A representative compound (Example 1, Compound 3) was incubated with human plasma at 15 µg/mL. Incubations were carried out at 37° C. in a shaker water bath. Samples were taken at 0, 10, 30 and 60 minutes, quenched with 25 μL of trifluoroacetic acid, and then centrifuged at 25,000 g for 3 minutes at 4° C. The supernatant of each sample was collected and analyzed using HPLC to monitor the formation of clofarabine. FIG. 1 illustrates the results for incubations performed at 37° C.

Consider `CCOC(=O)OC[C@H]1O[C@@H](n2cnc3c(N)nc(Cl)nc32)[C@@H](F)[C@@H]1O` [Compound 3, (2R,3R,4S,5R)-5-(6-Amino-2-chloropurin-9-yl)-2-(ethoxycarbonyloxymethyl)-4-fluoro-oxolan-3-ol], for which, in data set [1], the IC50 came out at 324 ± 18 nM. Also, the “metabolic conversion in human plasma (depletion of prodrug, formation of clofarabine)” value in data set [2] was “depletion of 3 was observed along with the formation of clofarabine as its metabolite”.

By IC50 is commonly meant the point on the concentration scale where inhibition reaches its midpoint.
